Entries after “also recorded” stand apart in the source; their conditions may differ.
Key:
Format in all cases: cell-based
RARγ = target: T1, RARγ (Homo sapiens, UniProt P13631); experiment: CAT reporter assay, RARγ; conditions: 1 μM, control = 1.0; for expression level of CAT enzyme, RARγ −: column '−'
T1 construct: expressed in transfected cells
T1 sequence (P13631 1-454): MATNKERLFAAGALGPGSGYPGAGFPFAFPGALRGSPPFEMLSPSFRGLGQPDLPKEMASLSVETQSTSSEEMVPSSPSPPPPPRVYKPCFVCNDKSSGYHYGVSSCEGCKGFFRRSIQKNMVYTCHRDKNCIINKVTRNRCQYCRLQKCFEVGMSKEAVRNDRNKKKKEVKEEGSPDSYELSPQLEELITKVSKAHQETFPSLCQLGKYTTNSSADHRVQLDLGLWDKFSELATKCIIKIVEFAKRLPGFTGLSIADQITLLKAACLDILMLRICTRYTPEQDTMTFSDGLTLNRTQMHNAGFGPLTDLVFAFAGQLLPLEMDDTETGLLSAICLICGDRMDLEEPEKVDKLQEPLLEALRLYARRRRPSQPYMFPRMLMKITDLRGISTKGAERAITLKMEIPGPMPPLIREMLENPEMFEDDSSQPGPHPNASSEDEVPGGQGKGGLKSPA
From the text: In order to confirm the effect of KCBG60 according to the present invention on retinoid receptor activity, cells were cotransfected with expression vectors of receptor subfamilies and reporter genes. As the reporter gene, chloramphenicol acetyltransferase (CAT) with a transcription control site reactive to respective receptors was used.

[1] = system: SK-Hep-1 liver cancer cells; experiment: Trypan blue surviving cell count, SK-HEP-1
From the text: Surviving cells, which had not be stained by trypan blue were counted and the results are shown in Table 3 as relative surviving cells (%).

AP-1 (c-Jun) = experiment: AP-1 CAT reporter assay (c-Jun cotransfection); conditions: 1 μM; for repression of AP-1 activity: Experimental Example 10, text; for AP-1 reporter CAT expression, −c-Jun/−RARα: control = 1.0; for AP-1 reporter CAT expression, +c-Jun/+RARα / AP-1 reporter CAT expression, +c-Jun/−RARα: control = 5.0; for suppression of AP-1 activity: Experimental Example 5
From the text: As the reporter gene, the CAT enzyme gene with a site recognizing AP-1 of collagenase was used.

[2] = system: HCT116 colon cancer cells; experiment: DNA fragmentation assay (agarose gel), HCT116; conditions: for fragmentation of chromosomal DNA (agarose gel): Experimental Example 8, cells treated as above; for DNA ladder (DNA fragmentation): HCT116, 2.5, 5.0, 10 μM, 48 hours
Protocol: (§1) After treated with each retinoid derivative at various concentrations (2.5, 5.0, 10 μM) for 48 hours, HCT116 or MCF-7 cells were poured in 1 mL of PBS and centrifuged at a rate of 13,000 rpm at 4° C. for 1 min. The resulting cell pellets were resuspended in 700 μl of lysis buffer (500 mM Tris, 100 mM EDTA, 0.5% SDS) containing 17.5 μl of proteinase K (20 mg/ml), and incubated on 55° C. water bath for 3 hours. The lysates were mixed with 700 μl of phenol solution while slowly stirring and centrifuged at 12,000 rpm for 5 min. The supernatants were separated and extracted with phenol once more. The supernatants were mixed with 600 μl of 100% ethanol and 60 μl of 3M NaOAc (pH 7.0) and left at −20° C. for 2 hours. The supernatants were removed by centrifugation at 12,000 rpm for 10 min to obtain pellets. After 70% ethanol washing and drying, DNA pellet was resuspended in 100 μl of TE (Tris-EDTA) buffer and treated with RNase A. The obtained samples were electrophoresed for 2 hours at 75 V on 1.8% agarose gels.
In order to confirm the above results, DNA was separated from the cells treated as above and examined for DNA fragmentation by agarose gel electrophoresis (FIG. 13).

HepG2 liver cancer cells = experiment: MTT proliferation assay, HepG2
Protocol: (§2) The effects of test compounds on proliferation of various cancer cells was examined by 3-(4,5-dimethylthiazol-2-yl)-2,5-diphenyltetrazolium bromide (MTT, Sigma) assay in a dose dependent manner. In the MTT assay, colon, liver, cervix, ovary, and breast cancer cell lines were treated with test compounds at various concentrations. Living cancer cells reduce MTT to dark blue MTT formazan that would be measured by absorbance.
(§3) Colon cancer cells, HCT116, DLD-1 and HT29, cervix cancer cells, HeLa and CaSki, ovary cancer cells, SKOV-3, 2774 and OVCAR-3, liver cancer cells, SK-Hep-1, PLCPRF5 and HepG2, and breast cancer cells, ZR75-1 and MDA-MB 231 were seeded at an initial density of 3000 cells per well in 96-well plates. After attachment of cells to the walls of the wells, the medium containing fresh retinoid was treated with various concentrations (0.5 μM, 1 μM, 2.5 μM, 5 μM, 10 μM) for 48 hours. 50 μl of MTT solution (2 mg/ml in PBS) was added to cell culture media. The reaction micture was incubated at 37° C. in a 5% CO2 atmosphere for 4 hours. The supernatant was removed and 150 μl of DMSO was added. The optical density was measured spectrophotometrically at 550 nm. […] For other retinoid derivatives according to the present invention, absorbances were measured by this procedure and IC50 values, concentrations required for 50% growth inhibition, were determined.

[3] = system: OVCAR-3 ovary cancer cells; experiment: MTT proliferation assay, OVCAR-3; conditions: ovarian cancer
Protocol: as §2, §3

[4] = system: MCF-7 breast cancer cells; experiment: DNA fragmentation assay (agarose gel), MCF-7; conditions: MCF-7, 2.5, 5.0, 10 μM, 48 hours
Protocol: as §1

[5] = system: MDA-MB-231 breast cancer cells; experiment: MTT proliferation assay, MDA-MB-231
Protocol: as §2, §3

DLD-1 colon cancer cells = experiment: MTT proliferation assay, DLD-1
Protocol: as §2, §3

[6] = system: HCT116 colon cancer cells; experiment: MTT proliferation assay, HCT116
Protocol: as §2, §3

Row | Compound | IC50 (HepG2 liver cancer cells; 48 hours) | IC50 ([3]; 48 hours) | IC50 ([5]; 48 hours) | IC50 (DLD-1 colon cancer cells; 48 hours) | IC50 ([6]; 48 hours) | expression level of CAT enzyme, RARγ + (RARγ) | expression level of CAT enzyme, RARγ − (RARγ) | relative surviving cells (%) ([1]; SK-HEP-1, 0.5 μM) | relative surviving cells (%) ([1]; SK-HEP-1, 1 μM) | relative surviving cells (%) ([1]; SK-HEP-1, 5 μM) | relative surviving cells (%) ([1]; SK-HEP-1, 10 μM) | repression of AP-1 activity (AP-1 (c-Jun)) | AP-1 reporter CAT expression, −c-Jun/−RARα (AP-1 (c-Jun)) | AP-1 reporter CAT expression, +c-Jun/+RARα (AP-1 (c-Jun)) | AP-1 reporter CAT expression, +c-Jun/−RARα (AP-1 (c-Jun)) | fragmentation of chromosomal DNA (agarose gel) [2] | suppression of AP-1 activity (AP-1 (c-Jun)) | DNA ladder (DNA fragmentation) [4] | DNA ladder (DNA fragmentation) [2] | further results
1 | CCCC(=O)Oc1ccc(NC(=O)/C=C(C)/C=C/C=C(C)/C=C/C2=C(C)CCCC2(C)C)cc1 [KCBG60] |  |  |  |  |  | 1.9 | 0.6 | 90% | 75% | 48% | 10% | about 50% | 0.6 | 2.4 | 3.6 | DNA ladder caused by fragmentation of chromosomal DNA was detected |  |  |  | 
2 | CC1=C(/C=C/C(C)=C/C=C/C(C)=C/C(=O)O)C(C)(C)CCC1 [ATRA, All-trans-retinoic acid, reference compound] |  |  |  |  |  | 49.3 | 14.1 |  |  |  |  |  | 0.6 | 2.0 | 3.5 | DNA ladder caused by fragmentation of chromosomal DNA was detected |  |  |  | IC50 (HepG2 liver cancer cells; Homo sapiens, HepG2, 48 hours): > 500 µM; IC50 ([3]; Homo sapiens, OVCAR-3, 48 hours): > 100 µM; IC50 ([5]; Homo sapiens, MDA-MB-231, 48 hours): > 100 µM; IC50 (DLD-1 colon cancer cells; Homo sapiens, DLD-1, 48 hours): 20 µM; IC50 ([6]; Homo sapiens, HCT-116, 48 hours): 20 µM
3 | CC1=C(/C=C/C(C)=C/C=C/C(C)=C/C(=O)Nc2ccc(O)cc2)C(C)(C)CCC1 [HPR, (2E,4E,6E,8E)-[3,7-dimethyl-9-(2,6,6-trimethylcyclohex-1-enyl)-nona-2,4,6,8-tetraenoylamino]-4-hydroxyphenylamide] | > 100 µM | 8 µM | 10 µM | 9 µM | 6 to 8 µM | 24.8 | 4.5 | 90% | 73% | 45% | 15% |  | 0.7 | 2.2 | 3.7 |  |  | did not show any DNA ladder | did not show any DNA ladder | 
4 | phenyl butylate |  |  |  |  |  | 1.1 | 0.8 | 102% | 103% | 95% | 87% | did not affect | 1.0 | 5.3 | 4.7 | did not induce any fragmentation of chromosomal DNA |  |  |  | 

More lines, main results first:

Row | IC50 (HepG2 liver cancer cells; 48 hours) | IC50 ([3]; 48 hours) | IC50 ([5]; 48 hours) | IC50 (DLD-1 colon cancer cells; 48 hours) | IC50 ([6]; 48 hours) | Compound | expression level of CAT enzyme, RARγ + (RARγ) | expression level of CAT enzyme, RARγ − (RARγ) | relative surviving cells (%) ([1]; SK-HEP-1, 0.5 μM) | relative surviving cells (%) ([1]; SK-HEP-1, 1 μM) | relative surviving cells (%) ([1]; SK-HEP-1, 5 μM) | relative surviving cells (%) ([1]; SK-HEP-1, 10 μM) | repression of AP-1 activity (AP-1 (c-Jun)) | AP-1 reporter CAT expression, −c-Jun/−RARα (AP-1 (c-Jun)) | AP-1 reporter CAT expression, +c-Jun/+RARα (AP-1 (c-Jun)) | AP-1 reporter CAT expression, +c-Jun/−RARα (AP-1 (c-Jun)) | fragmentation of chromosomal DNA (agarose gel) [2] | suppression of AP-1 activity (AP-1 (c-Jun)) | DNA ladder (DNA fragmentation) [4] | DNA ladder (DNA fragmentation) [2] | further results
5 | > 100 µM | 0.8 µM | 3.5 µM | 6 µM | 3 µM | CCCC(=O)Oc1cc(O)ccc1NC(=O)/C=C(C)/C=C/C=C(C)/C=C/C1=C(C)CCCC1(C)C [KCBG10, 2.2-[(2E,4E,6E,8E)-3,7-Dimethyl-9-(2,6,6-trimethylcyclohex-1-enyl)-nona-2,4,6,8-tetraenoylamino]-5-hydroxyphenylbutanoate] |  |  |  |  |  |  |  |  |  |  |  | ~50% | DNA band of the ladder shape caused by DNA fragmentation was well detected; also recorded: at a low concentration showed DNA fragmentation | DNA band of the ladder shape caused by DNA fragmentation was well detected | 
6 | > 100 µM | 3.7 µM | 3.3 µM | 1.5 µM | 1.4 µM | CCCC(=O)Nc1cc(NC(=O)/C=C(C)/C=C/C=C(C)/C=C/C2=C(C)CCCC2(C)C)ccc1O [KCBG41, (2E,4E,6E,8E)-[3,7-dimethyl-9-(2,6,6-trimethylcyclohex-1-enyl)-nona-2,4,6,8-tetraenoylamino]-(3-butyrylamino-4-hydroxy)phenylamide] |  |  |  |  |  |  |  |  |  |  |  | ~50% | DNA band of the ladder shape caused by DNA fragmentation was well detected | DNA band of the ladder shape caused by DNA fragmentation was well detected; also recorded: at a similar concentration showed DNA fragmentation | 
